In one experiment the target is T1, Fragment D1 (Homo sapiens, UniProt P02671+P02675+P02679).
T1 construct: consisted of three polypeptide chains of different molecular weights: /α/, 12,000; /β, 43,000; and /γ, 39,000; made in house; host or cells: not recombinant: plasmin (plasminogen + streptokinase) digest of human fibrinogen in calcium, then gel filtration
T1 sequence (P02671 124-225 limits assumed): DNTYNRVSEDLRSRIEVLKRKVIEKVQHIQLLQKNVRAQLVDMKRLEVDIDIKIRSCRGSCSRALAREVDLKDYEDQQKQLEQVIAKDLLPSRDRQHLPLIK
T1 sequence (P02675 164-491 limits assumed): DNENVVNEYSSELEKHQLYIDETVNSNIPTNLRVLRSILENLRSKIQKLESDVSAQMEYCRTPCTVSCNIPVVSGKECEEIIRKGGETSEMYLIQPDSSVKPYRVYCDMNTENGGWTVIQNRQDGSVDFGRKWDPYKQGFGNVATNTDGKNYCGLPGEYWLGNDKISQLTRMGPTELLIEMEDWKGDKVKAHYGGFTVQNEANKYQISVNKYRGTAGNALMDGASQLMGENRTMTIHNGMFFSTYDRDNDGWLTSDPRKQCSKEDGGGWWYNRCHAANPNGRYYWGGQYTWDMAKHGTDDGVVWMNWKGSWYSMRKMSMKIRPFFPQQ
T1 sequence (P02679 89-437 isoform P02679-2 limits assumed): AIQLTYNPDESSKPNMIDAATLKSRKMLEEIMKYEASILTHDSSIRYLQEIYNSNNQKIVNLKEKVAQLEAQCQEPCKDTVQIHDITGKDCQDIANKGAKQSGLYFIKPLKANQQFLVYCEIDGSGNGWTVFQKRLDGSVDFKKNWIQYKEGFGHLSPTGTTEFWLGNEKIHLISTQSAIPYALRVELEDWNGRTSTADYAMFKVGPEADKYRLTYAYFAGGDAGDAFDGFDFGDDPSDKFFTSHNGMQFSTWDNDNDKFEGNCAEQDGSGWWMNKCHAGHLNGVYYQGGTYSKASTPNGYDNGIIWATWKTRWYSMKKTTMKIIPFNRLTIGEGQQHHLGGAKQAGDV
The experiment in a line: Equilibrium binding of 125-I D1 Peptide, Fragment D1. The text has this: (§1) Acta 133, 376-379 (1979).

The target of a further experiment is T2, thrombin fibrin monomer (Homo sapiens, UniProt P02671+P02675+P02679).
T2 construct: Thrombin cleaves the bonds Aα16 Arg-17 Gly and Bβ14 Arg-15 Gly, releasing two molecules of fibrinopeptide A and two molecules of fibrinopeptide B; made in house; host or cells: not recombinant: made from fibrinogen by treatment with thrombin
T2 sequence (P02671 36-629 isoform P02671-2): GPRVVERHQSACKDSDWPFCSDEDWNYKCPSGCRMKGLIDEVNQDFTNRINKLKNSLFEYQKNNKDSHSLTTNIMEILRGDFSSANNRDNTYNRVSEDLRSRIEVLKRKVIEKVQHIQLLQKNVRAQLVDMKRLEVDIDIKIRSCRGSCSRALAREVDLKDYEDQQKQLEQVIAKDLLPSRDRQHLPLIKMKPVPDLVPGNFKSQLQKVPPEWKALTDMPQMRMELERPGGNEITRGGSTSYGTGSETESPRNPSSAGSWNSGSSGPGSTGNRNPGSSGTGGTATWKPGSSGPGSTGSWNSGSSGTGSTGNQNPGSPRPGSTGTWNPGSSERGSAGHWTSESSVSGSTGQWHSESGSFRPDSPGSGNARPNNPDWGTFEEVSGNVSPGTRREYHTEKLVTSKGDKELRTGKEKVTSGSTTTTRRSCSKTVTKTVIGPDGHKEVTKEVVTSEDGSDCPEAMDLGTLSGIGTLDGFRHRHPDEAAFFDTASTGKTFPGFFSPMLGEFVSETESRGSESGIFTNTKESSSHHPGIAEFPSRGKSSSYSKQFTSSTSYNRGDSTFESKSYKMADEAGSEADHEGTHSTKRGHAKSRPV
T2 sequence (P02675 45-491): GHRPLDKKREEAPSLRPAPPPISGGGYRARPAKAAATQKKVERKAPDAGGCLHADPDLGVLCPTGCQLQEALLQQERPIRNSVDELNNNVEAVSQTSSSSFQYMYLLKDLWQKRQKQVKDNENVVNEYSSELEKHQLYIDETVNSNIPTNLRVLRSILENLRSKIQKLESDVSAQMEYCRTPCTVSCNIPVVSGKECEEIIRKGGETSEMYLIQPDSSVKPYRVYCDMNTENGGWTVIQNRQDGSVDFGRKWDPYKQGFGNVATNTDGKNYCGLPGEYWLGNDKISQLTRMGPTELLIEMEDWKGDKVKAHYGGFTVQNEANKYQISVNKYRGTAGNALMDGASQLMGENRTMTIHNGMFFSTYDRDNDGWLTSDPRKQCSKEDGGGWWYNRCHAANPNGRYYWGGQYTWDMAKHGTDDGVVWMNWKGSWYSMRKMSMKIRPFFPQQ
T2 sequence (P02679 27-437 isoform P02679-2): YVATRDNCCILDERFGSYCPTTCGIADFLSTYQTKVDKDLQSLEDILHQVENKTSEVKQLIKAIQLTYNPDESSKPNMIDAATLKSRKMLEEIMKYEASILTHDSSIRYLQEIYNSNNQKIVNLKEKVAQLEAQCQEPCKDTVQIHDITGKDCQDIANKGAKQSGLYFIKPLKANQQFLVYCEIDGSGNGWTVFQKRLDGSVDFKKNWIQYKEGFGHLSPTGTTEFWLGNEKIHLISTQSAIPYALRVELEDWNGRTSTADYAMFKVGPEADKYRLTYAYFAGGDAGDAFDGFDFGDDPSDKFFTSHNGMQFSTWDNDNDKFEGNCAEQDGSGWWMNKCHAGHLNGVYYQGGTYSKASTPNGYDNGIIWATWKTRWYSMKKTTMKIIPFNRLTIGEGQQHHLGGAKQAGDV
The experiment in a line: Sephadex gel equilibrium binding, thrombin fibrin monomer. The conditions noted are these: 15 experiments, mean and standard deviation. Here is the method: as §1
The purification of NDSK involves incubation of fibrinogen in cyanogen bromide in the presence of 70% formic acid. This treatment may alter the binding sites. Therefore, an attempt was made to reproduce the data using fibrin monomer instead of thrombin-treated NDSK. A major difficulty, the self-polymerization of fibrin monomer, was overcome by using high molar ratios of D1 Peptide to fibrin monomer. However, in this situation the concentration of D1 Peptide could be varied only over a small range of concentrations. D1 Peptide was added to the Sephadex gel equilibrium system and incubated for 10 min., then soluble fibrin monomer was added in a molar excess of D1 Peptide to fibrin monomer of 100-1000 fold. Under these conditions the lag time in the fibrin monomer polymerization was more than 30 min.
In experiments using thrombin fibrin monomer the number of binding sites for D1 Peptide was 1.82±0.26 (15 experiments, mean and standard deviation). For batroxobin fibrin monomer the number of binding sites was 1.91±0.24 (17 experiments, mean and standard deviation).

Molecules are shown by their SMILES. Peptide text beside a SMILES is read from it.

As for `CC[C@H](C)[C@H](NC(=O)[C@H](CCCCN)NC(=O)[C@H](CCSC)NC(=O)[C@@H](NC(=O)[C@@H](NC(=O)[C@H](CCCCN)NC(=O)[C@H](CCCCN)NC(=O)[C@H](CCSC)NC(=O)[C@H](CO)NC(=O)[C@H](Cc1ccc(O)cc1)NC(=O)[C@H](Cc1c[nH]c2ccccc12)NC(=O)[C@H](CCCNC(=N)N)NC(=O)[C@@H](N)[C@@H](C)O)[C@@H](C)O)[C@@H](C)O)C(=O)N[C@H](C(=O)N1CCC[C@H]1C(=O)N[C@@H](Cc1ccccc1)C(=O)N[C@@H](CC(N)=O)C(=O)N[C@@H](CCCNC(=N)N)C(=O)N[C@@H](CC(C)C)C(=O)N[C@H](C(=O)N[C@H](C(=O)NCC(=O)N[C@@H](CCC(=O)O)C(=O)NCC(=O)N[C@@H](CCC(N)=O)C(=O)N[C@@H](CCC(N)=O)C(=O)N[C@@H](Cc1c[nH]cn1)C(=O)N[C@@H](Cc1c[nH]cn1)C(=O)N[C@@H](CC(C)C)C(=O)NCC(=O)NCC(=O)N[C@@H](C)C(=O)N[C@@H](CCCCN)C(=O)N[C@@H](CCC(N)=O)C(=O)N[C@@H](C)C(=O)NCC(=O)N[C@@H](CC(=O)O)C(=O)N[C@H](C(=O)O)C(C)C)[C@@H](C)CC)[C@@H](C)O)[C@@H](C)CC` [D1 Peptide] (H-TRWYSMKKTTMKIIPFNRLTIGEGQQHHLGGAKQAGDV-OH), the “binding to Fragment D1” value on Fragment D1 was “no measurable binding”. Also, at thrombin fibrin monomer, the “number of binding sites for D1 Peptide” value turned out to be 1.82±0.26.
